Data on 30 compounds can be found in patent US9624170B2, “4-(piperrazin-1-yl)-pyrrolidin-2-one compounds as monoacylglycerol lipase (MAGL) inhibitors” (TAKEDA PHARMACEUTICAL COMPANY LIMITED, priority 2013, dated 2017).

This experiment concerns the target T1, human MAGL (His-hMAGL) (Homo sapiens, UniProt Q99685).
T1 construct: made in house; host or cells: Escherichia coli BL21(DE3)
T1 sequence (Q99685 1-303): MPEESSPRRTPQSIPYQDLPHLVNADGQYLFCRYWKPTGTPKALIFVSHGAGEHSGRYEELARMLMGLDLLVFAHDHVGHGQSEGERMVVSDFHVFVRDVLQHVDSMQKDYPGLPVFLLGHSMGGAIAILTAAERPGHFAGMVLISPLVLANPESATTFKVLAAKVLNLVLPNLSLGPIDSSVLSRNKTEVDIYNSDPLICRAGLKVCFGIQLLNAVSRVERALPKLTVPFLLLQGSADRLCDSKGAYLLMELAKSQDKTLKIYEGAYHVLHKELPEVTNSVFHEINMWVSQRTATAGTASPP
In words: Measurement of MAGL inhibitory activity by mass spectrometry. The experiment is classed as biochemical. The conditions noted are these: MAGL inhibitory rate, test compound 10 μM, His-hMAGL, substrate 2-arachidonylglycerol, RapidFire-mass spectrometry. The gist of the method:
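His-tagged human MAGL was reacted with 150 μM 2-arachidonylglycerol substrate (stock, added by 5 μL) for 10 min at room temperature, then stopped with formic acid. Arachidonic acid product was quantified by RapidFire–triple-quadrupole MS in negative SRM mode, corrected by arachidonic acid-d8, and converted to percent inhibition.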
Consider `O=C(c1nccs1)N1CCN(C2CC(=O)N(c3ccc4c(ccn4-c4cccc(C(F)(F)F)c4)c3)C2)CC1` (stereo not drawn) [Example 280, 4-(4-(1,3-thiazol-2-ylcarbonyl)piperazin-1-yl)-1-(1-(3-(trifluoromethyl)phenyl)-1H-indol-5-yl)pyrrolidin-2-one], for which the inhibition – broadly, the change of the read-out against control, counted positive when it falls – at 10 µM came to 101%.
As for `O=C(c1nccs1)N1CCN(C2CC(=O)N(c3ccc4c(ccn4-c4nccc(C(F)(F)F)n4)c3)C2)CC1` (stereo not drawn) [Example 281, 4-(4-(1,3-thiazol-2-ylcarbonyl)piperazin-1-yl)-1-(1-(4-(trifluoromethyl)pyrimidin-2-yl)-1H-indol-5-yl)pyrrolidin-2-one], the inhibition at 10 µM stood at 99%.
The result for `O=C(c1nccs1)N1CCN(C2CC(=O)N(c3cccc(-c4c(F)cc(F)cc4F)c3)C2)CC1` (stereo not drawn) [Example 282, 4-(4-(1,3-thiazol-2-ylcarbonyl)piperazin-1-yl)-1-(2′,4′,6′-trifluorobiphenyl-3-yl)pyrrolidin-2-one] reads 100%.
Take `O=C(c1nccs1)N1CCN(C2CC(=O)N(c3cccc(-c4ccc(Cl)cc4Cl)c3)C2)CC1` (stereo not drawn) [Example 283, 1-(2′,4′-dichlorobiphenyl-3-yl)-4-(4-(1,3-thiazol-2-ylcarbonyl)piperazin-1-yl)pyrrolidin-2-one]: the inhibition at 10 µM is 101%.
The result for `O=C(c1nccs1)N1CCN(C2CC(=O)N(c3cccc(-c4ccc(F)c(Cl)c4)c3)C2)CC1` (stereo not drawn) [Example 284, 1-(3′-chloro-4′-fluorobiphenyl-3-yl)-4-(4-(1,3-thiazol-2-ylcarbonyl)piperazin-1-yl)pyrrolidin-2-one] reads 101%; that for `O=C(c1nccs1)N1CCN(C2CC(=O)N(c3cccc(-c4ccccc4-c4ccccc4)c3)C2)CC1` (stereo not drawn) [Example 285, 1-(1,1′:2′,1″-terphenyl-3-yl)-4-(4-(1,3-thiazol-2-ylcarbonyl)piperazin-1-yl)pyrrolidin-2-one], 101%; that for `O=C(O)c1ccc(-c2cccc(N3CC(N4CCN(C(=O)c5nccs5)CC4)CC3=O)c2)cc1` (stereo not drawn) [Example 286, 3′-(2-oxo-4-(4-(1,3-thiazol-2-ylcarbonyl)piperazin-1-yl)pyrrolidin-1-yl)biphenyl-4-carboxylic acid], 91%.
Then `O=C(c1nccs1)N1CCN(C2CC(=O)N(c3cccc(-c4cccc(C(F)(F)F)c4)c3)C2)CC1` (stereo not drawn) [Example 287, 4-(4-(1,3-thiazol-2-ylcarbonyl)piperazin-1-yl)-1-(3′-(trifluoromethyl)biphenyl-3-yl)pyrrolidin-2-one], with 103%.
The result for `O=C(c1nccs1)N1CCN(C2CC(=O)N(c3cccc(-c4ccc(C(F)(F)F)cc4)c3)C2)CC1` (stereo not drawn) [Example 288, 4-(4-(1,3-thiazol-2-ylcarbonyl)piperazin-1-yl)-1-(4′-(trifluoromethyl)biphenyl-3-yl)pyrrolidin-2-one] reads 97%.
Turning to `CCOc1ccccc1-c1cccc(N2CC(N3CCN(C(=O)c4nccs4)CC3)CC2=O)c1` (stereo not drawn) [Example 289, 1-(2′-ethoxybiphenyl-3-yl)-4-(4-(1,3-thiazol-2-ylcarbonyl)piperazin-1-yl)pyrrolidin-2-one], the inhibition at 10 µM amounted to 103%.
Then `O=C(c1nccs1)N1CCN(C2CC(=O)N(c3cccc(-c4ccc(F)c(F)c4)c3)C2)CC1` (stereo not drawn) [Example 290, 1-(3′,4′-difluorophenyl-3-yl)-4-(4-(1,3-thiazol-2-ylcarbonyl)piperazin-1-yl)pyrrolidin-2-one], with 101%; and `O=C(c1nccs1)N1CCN(C2CC(=O)N(c3cccc(-c4ccccc4Oc4ccccc4)c3)C2)CC1` (stereo not drawn) [Example 291, 1-(2′-phenoxybiphenyl-3-yl)-4-(4-(1,3-thiazol-2-ylcarbonyl)piperazin-1-yl)pyrrolidin-2-one], with 104%.
The result for `O=C(c1nccs1)N1CCN(C2CC(=O)N(c3cccc(-c4ccc(OC(F)(F)F)cc4)c3)C2)CC1` (stereo not drawn) [Example 292, 4-(4-(1,3-thiazol-2-ylcarbonyl)piperazin-1-yl)-1-(4′-(trifluoromethoxy)biphenyl-3-yl)pyrrolidin-2-one] reads 93%; that for `O=C(c1nccs1)N1CCN(C2CC(=O)N(c3cccc(-c4cccc(Cl)c4Cl)c3)C2)CC1` (stereo not drawn) [Example 293, 1-(2′,3′-dichlorophenyl-3-yl)-4-(4-(1,3-thiazol-2-ylcarbonyl)piperazin-1-yl)pyrrolidin-2-one], 103%; that for `O=C(c1nccs1)N1CCN(C2CC(=O)N(c3cccc(-c4csc5ccccc45)c3)C2)CC1` (stereo not drawn) [Example 294, 1-(3-(1-benzothiophen-3-yl)phenyl)-4-(4-(1,3-thiazol-2-ylcarbonyl)piperazin-1-yl)pyrrolidin-2-one], 100%.
Then `N#Cc1ccc(-c2cccc(N3CC(N4CCN(C(=O)c5nccs5)CC4)CC3=O)c2)cc1` (stereo not drawn) [Example 295, 3′-(2-oxo-4-(4-(1,3-thiazol-2-ylcarbonyl)piperazin-1-yl)pyrrolidin-1-yl)biphenyl-4-carbonitrile], with 98%; and `O=C(c1nccs1)N1CCN(C2CC(=O)N(c3cccc(-c4ccc(F)cc4F)c3)C2)CC1` (stereo not drawn) [Example 296, 1-(2′,4′-difluorobiphenyl-3-yl)-4-(4-(1,3-thiazol-2-ylcarbonyl)piperazin-1-yl)pyrrolidin-2-one], with 102%.
`O=C(c1nccs1)N1CCN(C2CC(=O)N(c3cccc(-c4cccc(OC(F)(F)F)c4)c3)C2)CC1` (stereo not drawn) [Example 297, 4-(4-(1,3-thiazol-2-ylcarbonyl)piperazin-1-yl)-1-(3′-(trifluoromethoxy)biphenyl-3-yl)pyrrolidin-2-one]: the inhibition at 10 µM was found to be 103%.
As for `O=C(c1nccs1)N1CCN(C2CC(=O)N(c3cccc(-c4ccccc4OC(F)(F)F)c3)C2)CC1` (stereo not drawn) [Example 298, 4-(4-(1,3-thiazol-2-ylcarbonyl)piperazin-1-yl)-1-(2′-(trifluoromethoxy)biphenyl-3-yl)pyrrolidin-2-one], the inhibition at 10 µM amounted to 101%.
In the case of `O=C(c1nccs1)N1CCN(C2CC(=O)N(c3cccc(-c4cccc(F)c4F)c3)C2)CC1` (stereo not drawn) [Example 299, 1-(2′,3′-difluorobiphenyl-3-yl)-4-(4-(1,3-thiazol-2-ylcarbonyl)piperazin-1-yl)pyrrolidin-2-one], the inhibition at 10 µM worked out at 102%.
Then `O=C(c1nccs1)N1CCN(C2CC(=O)N(c3cccc(-c4cc(Cl)ccc4Cl)c3)C2)CC1` (stereo not drawn) [Example 300, 1-(2′,5′-dichlorobiphenyl-3-yl)-4-(4-(1,3-thiazol-2-ylcarbonyl)piperazin-1-yl)pyrrolidin-2-one], with 101%.
With `Cc1cc(F)ccc1-c1cccc(N2CC(N3CCN(C(=O)c4nccs4)CC3)CC2=O)c1` (stereo not drawn) [Example 301, 1-(4′-fluoro-2′-methylbiphenyl-3-yl)-4-(4-(1,3-thiazol-2-ylcarbonyl)piperazin-1-yl)pyrrolidin-2-one], the inhibition at 10 µM came out at 104%.
As for `CS(=O)(=O)Nc1ccccc1-c1cccc(N2CC(N3CCN(C(=O)c4nccs4)CC3)CC2=O)c1` (stereo not drawn) [Example 302, N-(3′-(2-oxo-4-(4-(1,3-thiazol-2-ylcarbonyl)piperazin-1-yl)pyrrolidin-1-yl)biphenyl-2-yl)methanesulfonamide], the inhibition at 10 µM is 98%.
As for `CC(=O)Nc1ccccc1-c1cccc(N2CC(N3CCN(C(=O)c4nccs4)CC3)CC2=O)c1` (stereo not drawn) [Example 303, N-(3′-(2-oxo-4-(4-(1,3-thiazol-2-ylcarbonyl)piperazin-1-yl)pyrrolidin-1-yl)biphenyl-2-yl)acetamide], the inhibition at 10 µM came to 88%.
Then `O=C(c1nccs1)N1CCN(C2CC(=O)N(c3cccc(-c4ccc(Cl)cc4F)c3)C2)CC1` (stereo not drawn) [Example 304, 1-(4′-chloro-2′-fluorobiphenyl-3-yl)-4-(4-(1,3-thiazol-2-ylcarbonyl)piperazin-1-yl)pyrrolidin-2-one], with 100%; and `O=C(c1nccs1)N1CCN(C2CC(=O)N(c3cccc(-c4ccc(C(F)(F)F)cc4Cl)c3)C2)CC1` (stereo not drawn) [Example 305, 1-(2′-chloro-4′-(trifluoromethyl)biphenyl-3-yl)-4-(4-(1,3-thiazol-2-ylcarbonyl)piperazin-1-yl)pyrrolidin-2-one], with 96%.
Then `O=C(c1nccs1)N1CCN(C2CC(=O)N(c3cccc(-c4ccccc4N4CCOCC4)c3)C2)CC1` (stereo not drawn) [Example 306, 1-(2′-(morpholin-4-yl)biphenyl-3-yl)-4-(4-(1,3-thiazol-2-ylcarbonyl)piperazin-1-yl)pyrrolidin-2-one], with 102%; and `O=C(c1nccs1)N1CCN(C2CC(=O)N(c3cccc(-c4cccc5[nH]ccc45)c3)C2)CC1` (stereo not drawn) [Example 307, 1-(3-(1H-indol-4-yl)phenyl)-4-(4-(1,3-thiazol-2-ylcarbonyl)piperazin-1-yl)pyrrolidin-2-one], with 103%.
The result for `O=C(O)c1cccc(-c2cccc(N3CC(N4CCN(C(=O)c5nccs5)CC4)CC3=O)c2)c1` (stereo not drawn) [Example 308, 3′-(2-oxo-4-(4-(1,3-thiazol-2-ylcarbonyl)piperazin-1-yl)pyrrolidin-1-yl)biphenyl-3-carboxylic acid] reads 98%; that for `CC(C)Oc1ccccc1-c1cccc(N2CC(N3CCN(C(=O)c4nccs4)CC3)CC2=O)c1` (stereo not drawn) [Example 309, 1-(2′-isopropoxybiphenyl-3-yl)-4-(4-(1,3-thiazol-2-ylcarbonyl)piperazin-1-yl)pyrrolidin-2-one], 103%.
